Measurements from US20230270767A1, “INHIBITORS OF ENPP1 AND METHODS OF USING SAME” (The Regents of the University of California, priority 2017, published 2023).

Tests used:
[1] = tested on: C3H animals; assay: Echocardiography of cardiac function after cardiac cryo-injury; format: in vivo, mouse
Description: We next investigated the physiologic significance of inhibiting cardiac calcification on cardiac function. In a subset of C3H animals, we performed echocardiography to determine cardiac function prior to cardiac cryo-injury and following administration of etidronate. […] Etidronate had no effect on sham injured hearts (Cell Stem Cell (2017) 20:1-15, the FIGURE).

[2] = tested on: C3H mice; assay: Post injury cardiac calcification after cardiac cryo injury in mice (gross inspection, micro CT, biochemical calcium measurement); format: in vivo, mouse; settings: for post injury cardiac calcification on gross inspection: ENPP1 inhibitor by continuous infusion (mini pump) for 2 days prior to cardiac injury and 5 days after injury, compared to vehicle; for reduction in calcium deposits in the injured hearts (biochemical measurements): ENPP1 inhibitor by continuous infusion for 2 days prior to and 5 days after injury, p<0.05; for decrease in calcific deposits / calcification on micro CT with 3D reconstruction: ENPP1 inhibitor by continuous infusion for 2 days prior to cardiac injury and 5 days after injury, compared to vehicle treated animals
Description: We next investigated whether cardiac fibroblasts can adopt osteoblast cell like fates in vivo and directly contribute to ectopic calcification of the myocardium. To address this question, we created three murine models of myocardial calcification and determined with lineage trace techniques whether genetically labeled cardiac fibroblasts adopted an osteoblast phenotype and contributed to heart calcification in vivo. Cardiac injury or aging in certain strains of mice (e.g. C3H/HeJ, BALB/cByJ, DBA/2J) can lead to the development of calcification within the myocardium (Glass et al., 2013);(Ivandic et al., 1996);(Korff et al., 2006). We used several different methods to induce myocardial injury in C3H strain of mice. First, we administered high dose systemic steroids daily for 10 days which is known to induce myocyte necrosis (Sparks et al., 1955). […] Finally, ischemic injury of the myocardium by ligating the left anterior descending (LAD) coronary artery, (Korff et al., 2006) led to patchy calcification of the injury region within 4 weeks of ischemic insult (Cell Stem Cell (2017) 20:1-15, the FIGURE). Consistent with the known association of fibrosis and calcification, we observed calcification only in regions where there was fibrosis (identified by Masson trichrome staining) (Cell Stem Cell (2017) 20:1-15, the FIGURE).
Calcification of the extracellular matrix is critically regulated by the balance of extracellular phosphate (Pi) and pyrophosphate (PPi) (Terkeltaub, 2001). Pyrophosphate is generated at the cell surface by the enzyme ectonucleotide pyrophosphatase/phosphodiesterase-1 (ENPP1) that breaks down ATP to AMP and PPi. Pyrophosphate is well recognized to inhibit calcium hydroxyapatite mineralization (Rutsch et al., 2011) in non-skeletal tissues, but in bone and teeth, pyrophosphate promotes mineralization by serving as a substrate for tissue non specific alkaline phosphatase that hydrolyzes pyrophosphate to generate inorganic phosphate (Terkeltaub, 2006). ENPP1 is expressed in osteoblasts, thought to regulate osteoblast maturation and bone mineralization and animals deficient in ENPP1 have decreased mineralization of long bones (Johnson et al., 2003). Considering the importance of ENPP1 in mineralization of the skeleton, we examined whether ENPP1, a gene identified by us to be differentially expressed (by RNA-seq) between calcific and non-calcified cardiac regions was contributing to ectopic cardiac calcification. We first confirmed our observation and subjected C3H mice and B6 mice to cryo-induced cardiac injury. […] Immunostaining for ENPP1 confirmed that ENPP1 was expressed in uninjured B6 hearts (Cell Stem Cell (2017) 20:1-15, the FIGURE) and was more abundant following injury (Cell Stem Cell (2017) 20:1-15, the FIGURE). […] We next determined whether cardiac fibroblasts in the injury region were a source of increased ENPP1 expression. We subjected Col1a2CreERT:R26R^tdTomato mice hearts to cardiac injury and observed abundant expression of ENPP1 by tdTomato labeled cardiac fibroblasts in calcified regions. (Cell Stem Cell (2017) 20:1-15, the FIGURE). Extracellular pyrophosphate generated by ENPP1 can induce mineralization of tissues by precipitating out as calcium pyrophosphate dihydrate (CPPD) or serving as a substrate for phosphate generation and formation of calcium hydroxyapatite. To distinguish between these two, we performed Raman spectroscopy (Chen et al., 2009) and observed that the myocardial calcific deposits comprised calcium hydroxyapatite and not pyrophosphate dihydrate (Cell Stem Cell (2017) 20:1-15, the FIGURE). PPi generated by ENPP1 can be hydrolyzed by tissue non-specific alkaline phosphatase (TNAP) to Pi. The heart is known to express TNAP and we confirmed that both injured and uninjured cardiac tissue is rich in tissue non-specific alkaline phosphatase (TNAP) (Cell Stem Cell (2017) 20:1-15, the FIGURE). […]

[3] = post injury, compared to vehicle treated control animals

SMILES | post injury cardiac function ([1]; C3H animals, cardiac cryo-injury, echocardiography) | Ejection fraction ([1]; following injury) | fractional shortening ([1]; following injury) | systolic function ([1]; injured animals, echocardiography) | left ventricular end diastolic diameter (LVEDD) [1, 3] | left ventricular end systolic diameter (LVESD) [1, 3] | effect on sham injured hearts ([1]; sham injured hearts) | amount of deposited calcium ([2]; administered after the development of calcification, data not shown) | calcification on gross inspection or on CT scans ([2]; administered one day prior to cardiac cryo injury and then daily till hearts were harvested) | calcific phenotype ([2]; administered one day prior to cardiac cryo injury and then daily till hearts were harvested, vs vehicle injected controls) | post injury cardiac calcification on gross inspection [2] | reduction in calcium deposits in the injured hearts (biochemical measurements) [2] | decrease in calcific deposits / calcification on micro CT with 3D reconstruction [2]
CC(O)(P(=O)(O)O)P(=O)(O)O [etidronate, etidronic acid] | significant preservation of post injury cardiac function | substantially better | substantially better | better systolic function | significantly decreased | significantly decreased | no effect | did not reverse or decrease the amount of deposited calcium | no calcification was seen | completely rescued the calcific phenotype |  |  | 
CCN(CC)c1ncnc2c1ncn2[C@@H]1O[C@H](COP(=O)([O-])OP(=O)([O-])C(Br)(Br)P(=O)([O-])O)C(O)C1O.[Na+].[Na+].[Na+] (stereo partly shown) [ARL67156] |  |  |  |  |  |  |  |  |  |  | significantly inhibited calcification | 79% | 85%
O=C(/C=C/c1ccc(O)c(O)c1)O[C@H](Cc1ccc(O)c(O)c1)C(=O)O [SYL-001, rosmarinic acid] |  |  |  |  |  |  |  |  |  |  | decreased post injury cardiac calcification | 35% | 42%
